Some test systems named below: A549; ACHN; COLO 205; EKVX; HCT-15; IGROV-1; K562; LOX IMVI; NCI-H522; OVCAR-3; OVCAR-5; OVCAR-8; SF-295; SF-539; SK-MEL-5; NCI-H23; HCC 2998; SNB-75.
Holding throughout (experiment): NCI anticancer screen, dose series, 48 h

Here are results for 13 compounds from ChEMBL document CHEMBL1201862, “PubChem BioAssay data set” (2004).

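Five concentrations, 48 hours, 96-well plates. GI50 is the concentration that inhibits growth by half.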 Activity calls are given as the source filed them. No stated cut-off is given here; in the data, active = GI50 up to about 1.1 µM and inactive = higher.

For `CC1CC2C(=O)N(c3ccccc3)C(=O)C2c2c1c1ccccc1n2Cc1ccccc1` (stereo not drawn), the GI50 is 32.1 µM (inactive) with A549; 39.1 µM (inactive) in the test with ACHN; 49.8 µM (inactive) with COLO 205; > 100 µM (inactive) in the test with EKVX; 35.1 µM in the test with HCT-15; > 100 µM (inactive) in the test on IGROV-1. For the same compound, the GI50 in the test on K562 was 14.5 µM (inactive); in the test with LOX IMVI it was > 100 µM (inactive); in the test on NCI-H522, 17.7 µM (inactive); with OVCAR-3, > 100 µM (inactive); in the test with OVCAR-5, > 100 µM (inactive); with OVCAR-8, > 100 µM (inactive). Also, the GI50 in the test on SF-295, in the test with SF-539 and with SK-MEL-5 was > 100 µM (inactive) each time.
On to `CCOC(=O)N1CCC(=O)C(CNC23CC4CC(CC(C4)C2)C3)C1` (stereo not drawn), for which the GI50 is > 100 µM (inactive) in the test on A549; 17.5 µM (inactive) with ACHN; 37.4 µM (inactive) in the test on COLO 205; > 100 µM (inactive) with EKVX; 13.1 µM (inactive) with K562; 19 µM (inactive) in the test with LOX IMVI. For the same compound, the GI50 in the test on NCI-H23 is 61.4 µM (inactive); with NCI-H522 it was 16.7 µM (inactive); in the test on OVCAR-5 it was > 100 µM (inactive); in the test on OVCAR-8, 21.2 µM (inactive); with SF-295, > 100 µM (inactive); in the test with SF-539 it was > 100 µM (inactive). In addition, in the test with SK-MEL-5, the GI50 was 80.2 µM (inactive).
For the compound `CCOC(=O)CC[C@H](NC(=O)c1nc[nH]c1[N+](=O)[O-])C(=O)OCC`, the GI50 with A549 was > 100 µM (inactive); in the test on ACHN, > 100 µM (inactive); in the test on COLO 205, > 100 µM (inactive); in the test with EKVX, > 100 µM (inactive); with HCC 2998, > 100 µM (inactive); in the test on HCT-15 it was greater than 100 µM. Moreover, the GI50 in the test on IGROV-1, in the test with K562, in the test with LOX IMVI, in the test with NCI-H23, in the test with NCI-H522 and with OVCAR-3 was > 100 µM (inactive) in each case. Also, the GI50 with OVCAR-8, in the test with SF-295 and with SF-539 was > 100 µM (inactive) in each case.
As for `NNC(=O)CCC(=O)NC1C2CC3CC(C2)CC1C3` (stereo not drawn), the GI50 in the test on A549 was > 100 µM (inactive); with ACHN, > 100 µM (inactive); in the test on COLO 205, > 100 µM (inactive); in the test with HCC 2998 it was > 100 µM (inactive); in the test on HCT-15, greater than 100 µM; in the test with IGROV-1, > 100 µM (inactive). The GI50 in the test on K562, in the test on LOX IMVI, in the test with NCI-H23, with NCI-H522, with OVCAR-5 and in the test with OVCAR-8 was > 100 µM (inactive) each time. Further, the GI50 with SF-295, in the test with SF-539, with SK-MEL-5 and in the test with SNB-75 was > 100 µM (inactive) in each case.
With `CN(C)C(=S)/N=c1\ss/c(=N\c2ccccc2)n1-c1ccccc1`, the GI50 in the test with A549 is 25.6 µM (inactive); in the test with ACHN, 25.2 µM (inactive); in the test on EKVX, 37.3 µM (inactive); with HCC 2998, 18.7 µM (inactive); with HCT-15, 23.2 µM; in the test on IGROV-1 it was 25.1 µM (inactive). The GI50 is 11.2 µM (inactive) in the test on K562; 17.1 µM (inactive) in the test with LOX IMVI; 25.8 µM (inactive) in the test with NCI-H23; 1.21 µM (inactive) in the test on NCI-H522; 13.7 µM (inactive) with OVCAR-3; > 100 µM (inactive) with OVCAR-5. Moreover, the GI50 with OVCAR-8 was 19.2 µM (inactive); in the test with SF-295, 28.6 µM (inactive); in the test on SF-539, 16.3 µM (inactive); in the test with SNB-75, 14.8 µM (inactive).
On to `OC1OCC(COc2cc(Cl)c(Cl)cc2Cl)OC1O` (stereo not drawn), for which the GI50 is 55 µM (inactive) in the test with A549; 25.3 µM (inactive) in the test with ACHN; 52.1 µM (inactive) with COLO 205; 34.3 µM (inactive) in the test on EKVX; 30.4 µM (inactive) in the test with HCC 2998; 19.8 µM in the test with HCT-15. Besides, the GI50 is 80.9 µM (inactive) in the test with IGROV-1; 33.6 µM (inactive) in the test on K562; 59.2 µM (inactive) with NCI-H23; 23.6 µM (inactive) in the test with NCI-H522; 25.5 µM (inactive) with OVCAR-3; > 100 µM (inactive) in the test on OVCAR-5. In addition, the GI50 in the test with OVCAR-8 is 36.8 µM (inactive); with SF-295 it was 45.8 µM (inactive); in the test with SF-539, 39.4 µM (inactive); with SK-MEL-5, 39.5 µM (inactive); in the test on SNB-75, 26.2 µM (inactive).
Turning to `NC(=O)N/N=C(\CCC(=O)N(Cc1ccccc1)Cc1ccccc1)CC(=O)c1ccc(F)cc1`, the GI50 is 37.1 µM (inactive) in the test on A549; > 100 µM (inactive) in the test on ACHN; > 100 µM (inactive) in the test with COLO 205; > 100 µM (inactive) in the test on EKVX; > 100 µM (inactive) with HCC 2998; greater than 100 µM in the test with HCT-15. Also, the GI50 in the test on IGROV-1, in the test on K562, in the test with LOX IMVI, in the test with NCI-H23, in the test with OVCAR-3 and with OVCAR-5 was > 100 µM (inactive) throughout. The GI50 was > 100 µM (inactive) in the test on OVCAR-8, > 100 µM (inactive) in the test with SF-295, 23.8 µM (inactive) in the test with SF-539 and > 100 µM (inactive) with SK-MEL-5.
In the case of `O=C(CSc1nnc(-c2ccc(/N=C\c3ccc(Cl)cc3)cc2)o1)Nc1ccccc1[N+](=O)[O-]`, the GI50 was > 100 µM (inactive) with A549; > 100 µM (inactive) with ACHN; > 100 µM (inactive) in the test with COLO 205; > 100 µM (inactive) in the test on EKVX; greater than 100 µM in the test on HCT-15; > 100 µM (inactive) in the test with K562. For the same compound, the GI50 in the test with LOX IMVI, with NCI-H23, in the test with NCI-H522, in the test on OVCAR-8, with SF-295 and with SK-MEL-5 was > 100 µM (inactive) in each case. The GI50 in the test on SNB-75 is > 100 µM (inactive).
On to `FC(F)(F)c1nc(-c2ccccc2Cl)[nH]c1C(F)(F)F`, for which the GI50 with A549 is 0.7 µM (active); in the test with ACHN it was 0.841 µM (active); in the test on COLO 205, 0.542 µM (active); with EKVX, 0.56 µM (active); with HCT-15, 0.875 µM; in the test with IGROV-1, 1.15 µM (inactive). For the same compound, the GI50 in the test on K562 is 1.03 µM (active); with LOX IMVI it was 0.459 µM (active); in the test with NCI-H23, 0.687 µM (active); in the test on OVCAR-3, 0.223 µM (active); in the test on OVCAR-5, 0.746 µM (active); in the test on OVCAR-8, 1.11 µM (active). Moreover, the GI50 in the test on SF-295 was 0.681 µM (active); in the test with SF-539 it was 0.893 µM (active); in the test with SK-MEL-5, 0.348 µM (active); with SNB-75, 1.07 µM (active).
Turning to `O=[N+]([O-])c1ccc(N2C[N+](c3ccccc3)=NC(c3ccccc3)=N2)cc1`, the GI50 was 34.6 µM (inactive) with A549; 19.3 µM (inactive) with ACHN; 50.5 µM (inactive) in the test with COLO 205; 28.6 µM in the test on HCT-15; 41.2 µM (inactive) in the test on IGROV-1; 27 µM (inactive) with K562. Besides, the GI50 with LOX IMVI was 26.1 µM (inactive); in the test with NCI-H23, 34 µM (inactive); with NCI-H522 it was 25.6 µM (inactive); in the test with OVCAR-3, 32.2 µM (inactive); in the test on OVCAR-5 it was 73.1 µM (inactive); in the test with OVCAR-8, 43.9 µM (inactive). Besides, the GI50 was 35.6 µM (inactive) in the test on SF-295, 72.3 µM (inactive) in the test on SF-539, 29 µM (inactive) in the test on SK-MEL-5 and 99.3 µM (inactive) in the test with SNB-75.
As for `O=C(O)CSc1nnc(-c2ccc(O)cc2)[nH]1`, the GI50 with A549 was > 100 µM (inactive); with ACHN it was > 100 µM (inactive); in the test with COLO 205, > 100 µM (inactive); in the test on EKVX it was > 100 µM (inactive); in the test with HCC 2998, > 100 µM (inactive); with HCT-15, greater than 100 µM. Moreover, the GI50 in the test on IGROV-1, in the test on K562, with NCI-H23, with NCI-H522, in the test on OVCAR-3 and in the test with OVCAR-5 was > 100 µM (inactive) each time. The GI50 in the test with OVCAR-8 is > 100 µM (inactive); in the test on SF-295 it was > 100 µM (inactive); in the test with SF-539, > 100 µM (inactive); with SK-MEL-5, > 100 µM (inactive); in the test on SNB-75, 41 µM (inactive).
Regarding `c1ccc2c3c([nH]c2c1)C1(CCCCC1)c1c([nH]c2ccccc12)C31CCCCC1`, the GI50 in the test on A549 is 39.3 µM (inactive); with ACHN, 17.5 µM (inactive); with COLO 205, 37.9 µM (inactive); in the test with EKVX, 26.2 µM (inactive); with HCC 2998, 32.3 µM (inactive); in the test with HCT-15 it was greater than 100 µM. The GI50 in the test with IGROV-1 is 31.3 µM (inactive); in the test with K562, 35.6 µM (inactive); in the test with LOX IMVI it was 34.4 µM (inactive); with NCI-H23, 31 µM (inactive); with NCI-H522 it was 30 µM (inactive); in the test with OVCAR-3, > 100 µM (inactive). Further, the GI50 in the test on OVCAR-5 is > 100 µM (inactive); in the test with OVCAR-8, 17.8 µM (inactive); with SF-295 it was 24.7 µM (inactive); in the test with SK-MEL-5, 26.2 µM (inactive); in the test on SNB-75 it was 15.9 µM (inactive).
In the case of `COc1ccc(OCC(=O)O)c2c1CCC(C(C)C)C2=O` (stereo not drawn), the GI50 in the test with A549, with ACHN, in the test on COLO 205, in the test with EKVX, with HCC 2998 and with IGROV-1 was > 100 µM (inactive) each time. Moreover, the GI50 in the test with K562, with LOX IMVI, with NCI-H23, in the test with NCI-H522, in the test on OVCAR-3 and in the test on OVCAR-5 was > 100 µM (inactive) each time. In addition, the GI50 in the test on OVCAR-8, with SF-295, in the test with SF-539 and in the test with SK-MEL-5 was > 100 µM (inactive) in each case.
